Data as given in patent EP0151939A2, “Pyrimidinediones and dihydroxypyrimidines, and process for the preparation of pyrimidinedones and dihydroxypyrimidines” (BAYER AG, priority 1984, dated 1985).

What was measured:
Format in all cases: in vivo
[1] = test system: Weizen; experiment: Post-emergence test; settings: 1 kg/ha, rated after three weeks
From the text: (§1) Lösungsmittel: 5 Gewichtsteile Aceton Emulgator: 1 Gewichtsteil Alkylarylpolyglykolether Zur Herstellung einer zweckmäßigen Wirkstoffzubereitung vermischt man 1 Gewichtsteil Wirkstoff mit der angegebenen Menge Lösungsmittel, gibt die angegebene Menge Emulgator zu und verdünnt das Konzentrat mit Wasser auf die gewünschte Konzentration.
(§2) Mit der Wirkstoffzubereitung spritzt man Testpflanzen, welche eine Höhe von 5 - 15 cm haben so, daß die jeweils gewünschten Wirkstoffmengen pro Flächeneinheit ausgebracht werden. Die Konzentration der Spritzbrühe wird so gewählt, daß in 2000 1 Wasser/ha die jeweils gewünschten Wirkstoffmengen ausgebracht werden. Nach drei Wochen wird der Schädigungsgrad der Pflanzen bonitiert.

[2] = test system: Senf; experiment: Post-emergence test; settings: 1 kg/ha, rated after three weeks
From the text: as §1, §2

[3] = test system: Rüben; experiment: Post-emergence test; settings: 1 kg/ha, rated after three weeks
From the text: as §1, §2

[4] = test system: Weizen; experiment: Pre-emergence test; settings: 2 kg/ha, rated after three weeks
From the text: (§3) Losungsmittel: 5 Gewichtsteile Aceton Emulgator: 1 Gewichtsteil Alkylarylpolyglykolether
(§4) Zur Herstellung einer zweckmäßigen Wirkstoffzubereitung vermischt man 1 Gewichtsteil Wirkstoff mit der angegebenen Menge Lösungsmittel, gibt die angegebene Menge Emulgator zu und verdünnt das Konzentrat mit Wasser auf die gewünschte Konzentration.
(§5) Samen der Testpflanzen werden in normalen Boden ausgesät und nach 24 Stunden mit der Wirkstoffzubereitung begossen. Dabei hält man die Wassermenge pro Flächeneinheit zweckmäßigerweise konstant. Die Wirkstoffkonzentration in der Zubereitung spielt keine Rolle, entscheidend ist nur die Aufwandmenge des Wirkstoffs pro Flächeneinheit. Nach drei Wochen wird der Schädigungsgrad der Pflanzen bonitiert.

[5] = test system: Senf; experiment: Pre-emergence test; settings: 2 kg/ha, rated after three weeks
From the text: as §3, §4, §5

[6] = test system: Mais; experiment: Pre-emergence test; settings: 2 kg/ha, rated after three weeks
From the text: as §3, §4, §5

[7] = test system: Hafer; experiment: Pre-emergence test; settings: 2 kg/ha, rated after three weeks
From the text: as §3, §4, §5

[8] = test system: Mais; experiment: Post-emergence test; settings: 1 kg/ha, rated after three weeks
From the text: as §1, §2

[9] = test system: Hafer; experiment: Post-emergence test; settings: 1 kg/ha, rated after three weeks
From the text: as §1, §2

[10] = test system: Baumwolle; experiment: Post-emergence test; settings: 1 kg/ha, rated after three weeks
From the text: as §1, §2

[11] = test system: Bohnen; experiment: Post-emergence test; settings: 1 kg/ha, rated after three weeks
From the text: as §1, §2

[12] = test system: Rüben; experiment: Pre-emergence test; settings: 2 kg/ha, rated after three weeks
From the text: as §3, §4, §5

[13] = test system: Hirse; experiment: Pre-emergence test; settings: 2 kg/ha, rated after three weeks
From the text: as §3, §4, §5

Row | Compound | Wirkung (Schädigungsgrad der Pflanzen) [1] | Wirkung (Schädigungsgrad der Pflanzen) [2] | Wirkung (Schädigungsgrad der Pflanzen) [3] | Wirkung (Schädigungsgrad der Pflanzen) [4] | Wirkung (Schädigungsgrad der Pflanzen) [5] | Wirkung (Schädigungsgrad der Pflanzen) [6] | Wirkung (Schädigungsgrad der Pflanzen) [7] | Wirkung (Schädigungsgrad der Pflanzen) [8] | Wirkung (Schädigungsgrad der Pflanzen) [9] | Wirkung (Schädigungsgrad der Pflanzen) [10] | Wirkung (Schädigungsgrad der Pflanzen) [11] | Wirkung (Schädigungsgrad der Pflanzen) [12] | Wirkung (Schädigungsgrad der Pflanzen) [13]
1 | O=c1[nH]c(C(F)(F)F)c(F)c(=O)[nH]1 [Produkt aus Beispiel 5 und 14, 5-Fluor-6-trifluormethyl-2,4-(lH,3H)-pyrimidindion] | praktisch nicht | vollständig oder nahezu vollständig vernichtet | vollständig oder nahezu vollständig vernichtet | fast nicht | zum größeren Teil ver-nichtet | fast nicht | zum größeren Teil ver-nichtet | – | – | – | – | – | –
2 | O=c1[nH]c(C(F)(F)F)c(Cl)c(=O)[nH]1 [Produkt aus Beispiel 13, 5-Chlor-6-trifluor-2,4-(lH,3H)-pyrimidindion] | praktisch nicht | voll-ständig oder nahezu vollständig vernichtet | praktisch nicht | – | – | – | – | voll-ständig oder nahezu vollständig vernichtet | praktisch nicht | voll-ständig oder nahezu vollständig vernichtet | voll-ständig oder nahezu vollständig vernichtet | – | –
3 | O=c1[nH]c(C(F)(F)Cl)c(Cl)c(=O)[nH]1 [Produkt aus Beispiel 15] | praktisch nicht | vollständig vernichtet | – | praktisch nicht | nahezu vollständig ver-nichtet | praktisch nicht | praktisch nicht | praktisch nicht | praktisch nicht | – | – | nahezu vollständig ver-nichtet | –
4 | O=c1[nH]c(C(F)(Cl)Cl)c(Cl)c(=O)[nH]1 [Produkt aus Beispiel 16] | – | – | – | praktisch nicht | zum größeren Teil vernichtet | praktisch nicht | praktisch nicht | – | – | – | – | – | praktisch nicht
